Reference: publication PMC6760779, “Unraveling the functional role of the orphan solute carrier, SLC22A24 in the transport of steroid conjugates through metabolomic and genome-wide association studies” (PLoS Genetics, 2019)
Counter-ions that a name gives are not always drawn. Like-named read-outs stand apart in the source and are kept apart here. One block for each molecule: values may come before it.

Columns and labels:
SLC22A24 = biological target: T1, SLC22A24 (Homo sapiens, UniProt Q8N4F4); experiment: cell-based
T1 sequence (Q8N4F4 1-552): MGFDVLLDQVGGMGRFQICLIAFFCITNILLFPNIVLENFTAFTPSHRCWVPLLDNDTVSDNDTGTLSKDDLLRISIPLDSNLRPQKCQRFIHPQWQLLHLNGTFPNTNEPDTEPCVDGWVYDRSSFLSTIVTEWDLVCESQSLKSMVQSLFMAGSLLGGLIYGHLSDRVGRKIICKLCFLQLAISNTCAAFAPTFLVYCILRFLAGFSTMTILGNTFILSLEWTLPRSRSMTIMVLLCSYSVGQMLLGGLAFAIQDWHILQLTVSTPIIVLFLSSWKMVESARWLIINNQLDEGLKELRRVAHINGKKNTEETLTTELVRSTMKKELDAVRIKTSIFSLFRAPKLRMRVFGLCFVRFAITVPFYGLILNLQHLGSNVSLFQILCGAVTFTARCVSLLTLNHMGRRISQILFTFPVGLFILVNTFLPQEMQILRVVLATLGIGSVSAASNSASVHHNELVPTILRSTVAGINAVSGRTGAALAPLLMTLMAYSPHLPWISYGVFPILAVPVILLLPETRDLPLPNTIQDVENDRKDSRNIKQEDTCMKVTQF

[1] = substrate: C[C@]12CC[C@@H]3c4ccc(OS(=O)(=O)O)cc4CC[C@H]3[C@@H]1CCC2=O; experiment: cells, lysate or membranes
[2] = substrate: C[C@H](CCC(=O)NCC(=O)O)[C@H]1CC[C@H]2[C@@H]3[C@H](O)C[C@@H]4C[C@H](O)CC[C@]4(C)[C@H]3C[C@H](O)[C@]12C; experiment: cells, lysate or membranes; format: cell-based, Homo sapiens
[3] = substrate: C[C@]12CC[C@@H]3c4ccc(O)cc4CC[C@H]3[C@@H]1CC[C@@H]2O[C@@H]1O[C@H](C(=O)O)[C@@H](O)[C@H](O)[C@H]1O; experiment: cells, lysate or membranes; format: cell-based, Homo sapiens

Molecule: O=C(O)CSc1nnc(Br)n1-c1ccc(C2CC2)c2ccccc12 [Lesinurad]
IC50 (SLC22A24; read-out: IC50 [μM ± SD]): 13 ± 6.1 µM

Molecule: CC(=O)[C@H]1CC[C@H]2[C@@H]3CC=C4C[C@@H](OS(=O)(=O)O)CC[C@]4(C)[C@H]3CC[C@]12C [Pregnenolone sulfate]
IC50 (SLC22A24): 1.4 ± 0.1 µM

Molecule: CC(=O)[C@H]1CC[C@H]2[C@@H]3CCC4=CC(=O)CC[C@]4(C)[C@H]3CC[C@]12C [Progesterone]
IC50 (SLC22A24): 7.4 ± 3 µM

Molecule: CN(CCOc1ccc(CC2SC(=O)NC2=O)cc1)c1ccccn1 (stereo not drawn) [Rosiglitazone]
IC50 (SLC22A24; read-out: IC50 [μM ± SD]): 3.3 ± 1.4 µM

B1: SLC22A24 (Homo sapiens) (protein)
chain: MGFDVLLDQVGGMGRFQICLIAFFCITNILLFPNIVLENFTAFTPSHRCWVPLLDNDTVSDNDTGTLSKDDLLRISIPLDSNLRPQKCQRFIHPQWQLLHLNGTFPNTNEPDTEPCVDGWVYDRSSFLSTIVTEWDLVCESQSLKSMVQSLFMAGSLLGGLIYGHLSDRVGRKIICKLCFLQLAISNTCAAFAPTFLVYCILRFLAGFSTMTILGNTFILSLEWTLPRSRSMTIMVLLCSYSVGQMLLGGLAFAIQDWHILQLTVSTPIIVLFLSSWKMVESARWLIINNQLDEGLKELRRVAHINGKKNTEETLTTELVRSTMKKELDAVRIKTSIFSLFRAPKLRMRVFGLCFVRFAITVPFYGLILNLQHLGSNVSLFQILCGAVTFTARCVSLLTLNHMGRRISQILFTFPVGLFILVNTFLPQEMQILRVVLATLGIGSVSAASNSASVHHNELVPTILRSTVAGINAVSGRTGAALAPLLMTLMAYSPHLPWISYGVFPILAVPVILLLPETRDLPLPNTIQDVENDRKDSRNIKQEDTCMKVTQF
Km [1]: 8.6 ± 0.3 µM
Km [2]: 33.4 ± 2.5 µM
Km [3]: 17.5 ± 0.2 µM

Further lines, results first:

IC50 (SLC22A24; read-out: IC50 [μM ± SD]): 2.6 ± 1 µM
Molecule: C[C@H](CCC(=O)O)[C@H]1CC[C@H]2[C@@H]3[C@H](O)C[C@@H]4C[C@H](O)CC[C@]4(C)[C@H]3CC[C@]12C [Chenodeoxycholic acid]

IC50 (SLC22A24; read-out: IC50 [μM ± SD]): 7.6 ± 1.2 µM
Molecule: C[C@H](CCC(=O)O)[C@H]1CC[C@H]2[C@@H]3[C@@H](O)C[C@@H]4C[C@H](O)CC[C@]4(C)[C@H]3CC[C@]12C [Ursodeoxycholic acid]
